Assay results as given in publication PMC11813143, “HBV polymerase recruits the phosphatase PP1 to dephosphorylate HBc-Ser170 to complete encapsidation” (PLOS Pathogens, 2025).
Where no end group is shown, it is not given here.

Tested on: C-S170 Ab
Assay: ELISA binding of immobilized HBc CTD peptides to C-S170 Ab
Set-up: species or system rabbit
Conditions: Fig 1C; for O.D. Mean: mean of n = 2
Protocol: To quantify the binding specificity of C-S170 Ab with non-phosphorylated HBc-Ser170, a flat-bottomed 96-well plate was coated with 100 ng of various peptides, including the non-phosphorylated and phosphorylated peptides covering Ser150, Ser162 and Ser170, and then the C-S170 Ab was added to the wells. For the competition of various peptides to C-S170 Ab, the 96-well plate was coated with 100 ng of non-phosphorylated HBc-Ser170 peptide and then a preincubated mixture containing 100 ng of peptide and the C-S170 Ab was added to the wells. After incubation with rabbit IgG conjugated with HRP, TMB substrate and a stop solution were added. The absorbance at a wavelength of 450 nm (A450) with a reference wavelength of 650 nm was measured using a microplate reader. GraphPad Prism 5 software was used to generate bar graphs and calculate Kd values, binding percentages, and inhibition percentages.

PRRRRSQSPRRRR [Ser170] was tested, and the “O.D. Mean” value ([Ab] 0.0001 ng/mL) was 0.008, the O.D. ([Ab] 0.0001 ng/mL, replicate 1) was 0.008 and the O.D. ([Ab] 0.0001 ng/mL, replicate 2) was 0.008. The “O.D. Mean” value ([Ab] 0.001 ng/mL) was 0.032, the O.D. ([Ab] 0.001 ng/mL, replicate 1) was 0.034 and the O.D. ([Ab] 0.001 ng/mL, replicate 2) was 0.03. The “O.D. Mean” value ([Ab] 0.01 ng/mL) was 0.271, the O.D. ([Ab] 0.01 ng/mL, replicate 1) was 0.255 and the O.D. ([Ab] 0.01 ng/mL, replicate 2) was 0.288. The “O.D. Mean” value ([Ab] 0.1 ng/mL) was 1.801, the O.D. ([Ab] 0.1 ng/mL, replicate 1) was 1.753 and the O.D. ([Ab] 0.1 ng/mL, replicate 2) was 1.85.
